Here are results for three substances from patent US20090220469A1, “PEPTIDES AGAINST AUTOANTIBODIES ASSOCIATED WITH GLAUCOMA AND USE OF THESE PEPTIDES” (MAX-DELBRUECK-CENTRUM FUER MOLEKULARE MEDIZIN, priority 2006, published 2009).

This test relates to agonistic autoantibodies against the β2 adrenergic receptor (immunoglobulin fraction of POAG patients). Put plainly: Neutralization of agonistic autoantibodies by synthetic peptides, beating rate of spontaneously beating neonatal rat cardiomyocytes. Type of test: cell-based. As to conditions: for blocking of the stimulating effect of the antibodies by extracellular loop peptides: immunoglobulins from 6 POAG patients preexposed to peptides of the first, second and third extracellular β2 receptor loops, 0.5 μg peptide in 50 μl; for recognition of epitopes by the antibodies: 5 overlapping peptides of loop II of the β2 adrenergic receptor, FIG. 6; for effect on the antibody-induced increase in the spontaneous beating rate: immunoglobulins of 5 patients with POAG preincubated with short, overlapping peptides of the second extracellular loop of the β2 receptor, neonatal rat cardiomyocytes. On the procedure:
Preparation of the immunoglobulin fraction. The immunoglobulin fraction was isolated from 1- to 2-ml serum samples by ammonium sulfate precipitation at a saturation of 40%. The precipitates were washed and dissolved in dialysis buffer (154 mmol/l NaCl, 10 mmol/l sodium phosphate; pH 7.2). The procedure of precipitating, washing, and dissolving was repeated twice.
Finally, the immunoglobulins were taken up in 1 ml PBS (pH 7.2) and dialyzed at 4° C. for 30 hours against 1 l of dialysis buffer. The buffer was changed five times during dialysis. For detection of autoantibodies, the immunoglobulin fractions were added at a dilution of 1:20 or 1:40 to the flasks.
After the dialysis, the IgG fractions feature a concentration of 10-15 mg/ml, a maximum of 10 μg/ml of which are specific receptor antibodies. 50 μl of this IgG solution are pre-incubated with the peptides with the following concentration of peptides: 5 μl of a buffered solution of 100 μg/ml per 50 μl IgG solution. This mixture is pre-incubated at room temperature for 30 minutes and subsequently filled into the cell culture vials, after the former nutrient solution has been removed by pipet. The amount of the medium is 2 ml. The final concentration therefore is of […] for the IgG and 0.5 μg for the peptides. If the molecular weight of the peptide (10 mer) is set with 1 KD and that of the IgG is set with 150 KD, there is an […].
For the neutralization experiments, synthetic peptides corresponding to the sequence of the three extracellular loops of the human β2 adrenegic receptor was added in excess (0.5 μg in 50 μl) to 50 μl of the immunoglobulin fraction. The mixtures were shaken and incubated at room temperature for 1 h. The 100-μl samples were then added to neonatal rat heart muscle cells cultured in 2 ml medium to a final dilution of 1:40. The beating rate was counted for 15 s, 60 min after the addition of the peptide/immunoglobulin mixture.
For identifying the autoantibody neutralizing epitopes synthetic overlapping peptides corresponding to the sequence of the second extracellular loop of the human β2 adrenoceptor was added to the immunoglobulins. After 1 h incubation at room temperature the samples were used as described above.

“loop II peptide: synthetic peptide corresponding to the sequence of the second extracellular loop of the human β2 adrenergic receptor (HWYRATHQEAINCYANETCCDFFTNQ)”: the “blocking of the stimulating effect of the antibodies by extracellular loop peptides” value is “blocks the antibody activity to stimulate the rat cardiomyocytes”. In addition, the “blocking of the stimulating effect of the antibodies by extracellular loop peptides” value (listed as peptides from the second extracellular loop) is reported as “blocked the effect”.

On to AINCYAN [Ala-Ile-Asn-Cys-Tyr-Ala-Asn], for which the “recognition of epitopes by the antibodies” value is “Antibodies recognize the epitopes” and the “effect on the antibody-induced increase in the spontaneous beating rate” value was “abolished the increase in the spontaneous beating rate in all 5 patients tested”.

Take ANETCCD [Ala-Asn-Glu-Thr-Cys-Cys-Asp]: the “recognition of epitopes by the antibodies” value is reported as “Antibodies recognize the epitopes” and the “effect on the antibody-induced increase in the spontaneous beating rate” value was “abolished the increase in the spontaneous beating rate in all 5 patients tested”.
